The source of these data is patent US11053253B2, “Macrocyclic compounds for treatment of medical disorders” (Achillion Pharmaceuticals, Inc., priority 2017, dated 2021).

For data set [1] the following is noted: rcm bond, toluene, 80.0 °C.
For data set [2], the target named is Human Factor D (Homo sapiens (Human), UniProt P00746). Nature of the data set: Human Factor D Assay. Format: biochemical. The note with it: Human Factor D 80 nM, substrate Z-L-Lys-SBzl, DTNB, A405; read-out: IC50 (Stars). The method in brief:
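Serum-purified enzyme (80 nM final) was preincubated with compound 5 min at room temperature in 50 mM Tris, 1M NaCl, pH 7.5. Z-L-Lys-SBzl and DTNB ([…] each, final) were added and A405 followed every 30 s for 30 min; IC50 from nonlinear regression of reaction rates.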

pIC50: −log10 of the molar value. Like-named read-outs stand apart in the source and are kept apart here. Where only a bound is given, the exact number is not on record here.

Chain of Human Factor D (P00746 26-253): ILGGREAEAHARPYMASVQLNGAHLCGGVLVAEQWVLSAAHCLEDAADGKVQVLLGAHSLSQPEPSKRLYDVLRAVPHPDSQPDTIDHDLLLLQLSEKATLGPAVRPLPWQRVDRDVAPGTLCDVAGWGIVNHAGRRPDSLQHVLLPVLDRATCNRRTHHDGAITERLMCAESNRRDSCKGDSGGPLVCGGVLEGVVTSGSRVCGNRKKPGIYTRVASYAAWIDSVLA

On to `CC(=O)c1nn2c3cc(ccc13)OC(=O)NCCCC=CCOC[C@@]13C[C@@H](C(=O)Nc4nc(Br)ccc4C)N(C(=O)C2)[C@@H]1C3`, for which, in data set [1] (from C=CCCCNC(=O)Oc1ccc2c(C(C)=O)nn(CC(=O)N3[C@H](C(=O)Nc4nc(Br)ccc4C)C[C@@]4(COCC=C)C[C@@H]34)c2c1, 20-membered ring, Grubbs II, 1.48 mM, 16.0 h), the ring closure, isolated yield was 4.1%.
Regarding `CN1CC=CCOCc2ccc(Br)nc2NC(=O)[C@@H]2C[C@]3(C[C@H]3N2C(=O)OC(C)(C)C)C1`, the ring closure, isolated yield in data set [1] (from C=CCOCc1ccc(Br)nc1NC(=O)[C@@H]1C[C@@]2(CN(C)CC=C)C[C@H]2N1C(=O)OC(C)(C)C, 15-membered ring, Hoveyda-Grubbs II (extra 5 mg portions), 10.0 mM, 2.0 h) was 68%.
`Cc1ncc(-c2cc3c(C#N)nn4c3c(n2)CC=CCCCC(=O)NC[C@]23C[C@@H](C(=O)Nc5nc(Br)ccc5C)N[C@@]2(C3)C(=O)C4)cn1` returned a ring closure, isolated yield in data set [1] (from C=CCCCC(=O)NC[C@]12C[C@@H](C(=O)Nc3nc(Br)ccc3C)N[C@]1(C(=O)Cn1nc(C#N)c3cc(-c4cnc(C)nc4)nc(CC=C)c31)C2, 17-membered ring, Grubbs II, 1.27 mM, 16.0 h) of 44.8%.
The pIC50 is the IC50 on a negative log10 scale, so that one unit is a factor of ten. Turning to `CC(=O)c1nn2c3c(cc(-c4cnc(C)nc4)cc13)CC=CCCCC(=O)NC[C@@]13C[C@@H](C(=O)Nc4nc(Br)ccc4C4CC4)N(C(=O)C2)[C@@H]1C3` [Compound T-211], the negative logarithm of the IC50 (pIC50) in data set [2] was more than 6.00.
Consider `CC(=O)c1nn2c3c(cc(-c4cnc(C)nc4)cc13)CCCCCCC(=O)NC[C@@]13C[C@@H](C(=O)Nc4nc(Br)ccc4C4CC4)N(C(=O)C2)[C@@H]1C3` [Compound T-212], for which the pIC50 in data set [2] is more than 6.00.
On to `CC(=O)c1nn2c3c(cc(-c4cnc(C)nc4)cc13)CCCCCCC(=O)NC[C@@]13C[C@@H](C(=O)Nc4ccc(F)c(Br)n4)N(C(=O)C2)[C@@H]1C3` [Compound T-213], for which the negative-log IC50 (pIC50) in data set [2] was more than 6.00.
For `CC(=O)c1nn2c3c(cc(-c4cnc(C)nc4)cc13)CC=CCCCC(=O)NC[C@@]13C[C@@H](C(=O)Nc4ccc(F)c(Br)n4)N(C(=O)C2)[C@@H]1C3` [Compound T-214], the pIC50 in data set [2] was more than 6.00.
In the case of `CC(=O)c1nn2c3c(cc(-c4cnc(C)nc4)cc13)CC=CCCCC(=O)NC[C@@]13C[C@@H](C(=O)Nc4cc(C)c(F)c(Br)n4)N(C(=O)C2)[C@@H]1C3` [Compound T-217], the pIC50 in data set [2] was more than 6.00.
Consider `CC(=O)c1nn2c3c(cc(-c4cnc(C)nc4)cc13)CCCCCCC(=O)NC[C@@]13C[C@@H](C(=O)Nc4cc(C)c(F)c(Br)n4)N(C(=O)C2)[C@@H]1C3` [Compound T-218], for which the negative-log IC50 (pIC50) in data set [2] is more than 6.00.
With `CC(=O)c1nn2c3c(cc(-c4cnc(C)nc4)cc13)CC=CCCCC(=O)NC[C@@]13C[C@@H](C(=O)Nc4nc(C(F)(F)F)ccc4C)N(C(=O)C2)[C@@H]1C3` [Compound T-219], in data set [2], the pIC50 is more than 6.00.
Turning to `CC(=O)c1nn2c3c(cc(-c4cnc(C)nc4)cc13)CCCCCCC(=O)NC[C@@]13C[C@@H](C(=O)Nc4nc(C(F)(F)F)ccc4C)N(C(=O)C2)[C@@H]1C3` [Compound T-220], the negative-log IC50 (pIC50) in data set [2] was more than 6.00.
For `CC(=O)c1nn2c3c(cc(-c4cnc(C)nc4)cc13)CCCCCCC(=O)NC[C@@]13C[C@@H](C(=O)Nc4nc(C#N)ccc4C)N(C(=O)C2)[C@@H]1C3` [Compound T-221], the negative-log IC50 (pIC50) in data set [2] was more than 6.00.
Same read-out and setting: the value for `CC(=O)c1nn2c3c(cc(-c4cnc(C)nc4)cc13)CCCCCCC(=O)NC[C@@]13C[C@@H](C(=O)Nc4cccc(-c5cc(F)c(F)cc5Cl)c4F)N(C(=O)C2)[C@@H]1C3` [Compound T-222] was more than 6.00.
`CC(=O)c1nn2c3c(cc(-c4cnc(C)nc4)cc13)CCCCCCC(=O)NC[C@@]13C[C@@H](C(=O)Nc4cccc(OC(F)(F)F)c4F)N(C(=O)C2)[C@@H]1C3` [Compound T-223]: the negative-log IC50 (pIC50) in data set [2] was more than 6.00.
Take `CC(=O)c1nn(CC(=O)N2[C@H]3C[C@@]4(CNC(=O)C(C)(C)C=CCOCc5ccc(C(F)(F)F)nc5NC3=O)C[C@@H]24)c2cnc(-c3cnc(C)nc3)cc12` [Compound T-224]: the negative-log IC50 (pIC50) in data set [2] is more than 6.00.
Consider `CC(=O)c1nn(CC(=O)N2[C@H]3C[C@@]4(CNC(=O)C(C)(C)CCCOCc5ccc(C(F)(F)F)nc5NC3=O)C[C@@H]24)c2cnc(-c3cnc(C)nc3)cc12` [Compound T-225], for which, in data set [2], the negative-log IC50 (pIC50) was more than 6.00.
Regarding `CC(=O)c1nn2c3c(cc(-c4cnc(C)nc4)cc13)CCCCCCC(=O)NC[C@@]13C[C@@H](C(=O)N[C@@H](C)CC(C)(C)C)N(C(=O)C2)[C@@H]1C3` [Compound T-226], the pIC50 in data set [2] was more than 6.00.
On the same count and under the same terms, the value for `CC(=O)c1nn2c3c(cc(-c4cnc(C)nc4)cc13)CCCCCCC(=O)NC[C@@]13CC(C(=O)N[C@H](C)c4cccc(Cl)c4F)N(C(=O)C2)[C@@H]1C3` (stereo partly shown) [Compound T-227] was more than 6.00.
Consider `COc1cc(NC(=O)[C@@H]2C[C@]34CNC(=O)CCCCCCc5cc(-c6cnc(C)nc6)cc6c(C(C)=O)nn(c56)CC(=O)N2[C@@H]3C4)nc(Br)c1F` [Compound T-228], for which the pIC50 in data set [2] is more than 6.00.
Still for that read-out and setting: to `COc1cc(NC(=O)[C@@H]2C[C@]34CNC(=O)CCCC=CCc5cc(-c6cnc(C)nc6)cc6c(C(C)=O)nn(c56)CC(=O)N2[C@@H]3C4)nc(Br)c1F` [Compound T-229] belongs more than 6.00; to `CC(=O)c1nn2c3c(cc(-c4cnc(C)nc4)cc13)CCCCCCC(=O)NC[C@@]13C[C@@H](C(=O)Nc4cc(Br)ccc4F)N(C(=O)C2)[C@@H]1C3` [Compound T-230], more than 6.00; to `CC(=O)c1nn2c3c(cc(-c4cnc(C)nc4)cc13)CCCCCCC(=O)NC[C@@]13C[C@@H](C(=O)N[C@H](C)CC(C)(C)C)N(C(=O)C2)[C@@H]1C3` [Compound T-231], more than 6.00.
For `CC(=O)c1nn2c3c(cc(-c4cnc(C)nc4)cc13)CCCCCCC(=O)NC[C@@]13C[C@@H](C(=O)N[C@@H](C)c4cccc(Cl)c4F)N(C(=O)C2)[C@@H]1C3` [Compound T-232], in data set [2], the negative logarithm of the IC50 (pIC50) is more than 6.00.
As for `CC(=O)c1nn2c3c(cc(-c4cnc(C)nc4)cc13)CC=CCCCC(=O)NC[C@@]13C[C@@H](C(=O)Nc4cncc(Br)n4)N(C(=O)C2)[C@@H]1C3` [Compound T-233], the pIC50 in data set [2] was more than 6.00.
The same measure, in the same setting: the value for `CC(=O)c1nn2c3c(cc(-c4cnc(C)nc4)cc13)CCCCCCC(=O)NC[C@@]13C[C@@H](C(=O)Nc4cncc(Br)n4)N(C(=O)C2)[C@@H]1C3` [Compound T-234] was more than 6.00; that for `CC(=O)c1nn(CC(=O)N2[C@H]3C[C@@]4(CNC(=O)C(C)(C)C=CCOCc5ccc(C(F)(F)F)nc5NC3=O)C[C@@H]24)c2ccc(-c3cnc(C)nc3)cc12` [Compound T-235] was more than 6.00; that for `CC(=O)c1nn(CC(=O)N2[C@H]3C[C@@]4(CNC(=O)C(C)(C)CCCOCc5ccc(C(F)(F)F)nc5NC3=O)C[C@@H]24)c2ccc(-c3cnc(C)nc3)cc12` [Compound T-236] was more than 6.00.
Turning to `CC(=O)c1nn2c3c(cc(-c4cnc(C)nc4)cc13)CCCCNC(=O)NC[C@@]13C[C@@H](C(=O)Nc4nc(C(F)(F)F)ccc4C)N(C(=O)C2)[C@@H]1C3` [Compound T-237], the negative logarithm of the IC50 (pIC50) in data set [2] was more than 6.00.
Regarding `CC(=O)c1nn2c3c(cc(-c4cnc(C)nc4)cc13)CCCCCNC(=O)NC[C@@]13C[C@@H](C(=O)Nc4nc(C(F)(F)F)ccc4C)N(C(=O)C2)[C@@H]1C3` [Compound T-238], the pIC50 in data set [2] was more than 6.00.
With `CC(=O)c1nn(CC(=O)N2C[C@@]3(F)COCCCCCCCCc4ccc(Br)nc4NC(=O)[C@@H]2C3)c2cnc(-c3cnc(C)nc3)cc12` [Compound T-239], the negative logarithm of the IC50 (pIC50) in data set [2] is more than 6.00.
Regarding `COCc1ccc(Br)nc1NC(=O)[C@@H]1C[C@]23CNC(=O)CCCC=CCc4cc(-c5cnc(C)nc5)cc5c(C(C)=O)nn(c45)CC(=O)N1[C@@H]2C3` [Compound T-240], in data set [2], the pIC50 is more than 6.00.
Take `COCc1ccc(Br)nc1NC(=O)[C@@H]1C[C@]23CNC(=O)CCCCCCc4cc(-c5cnc(C)nc5)cc5c(C(C)=O)nn(c45)CC(=O)N1[C@@H]2C3` [Compound T-241]: the pIC50 in data set [2] was more than 6.00.
For `CC(=O)c1nn2c3c(cc(-c4cnc(C5CC5)nc4)cc13)CCCCCCC(=O)NC[C@@]13C[C@@H](C(=O)Nc4nc(C(F)(F)F)ccc4C)N(C(=O)C2)[C@@H]1C3` [Compound T-242], the pIC50 in data set [2] was more than 6.00.
Take `CC(=O)c1nn2c3c(cc(-c4cnc(C)nc4)cc13)CC=CCC[C@H](C)C(=O)N(C)C[C@@]13C[C@@H](C(=O)Nc4nc(C(F)(F)F)ccc4C)N(C(=O)C2)[C@@H]1C3` [Compound T-243]: in data set [2], the negative-log IC50 (pIC50) is more than 6.00.
For `CC(=O)c1nn2c3c(cc(-c4cnc(C)nc4)cc13)CCCCC[C@H](C)C(=O)N(C)C[C@@]13C[C@@H](C(=O)Nc4nc(C(F)(F)F)ccc4C)N(C(=O)C2)[C@@H]1C3` [Compound T-244], the negative logarithm of the IC50 (pIC50) in data set [2] was more than 6.00.
As for `CC(=O)c1nn2c3c(cc(-c4cnc5ccnn5c4)cc13)CCCCCCC(=O)NC[C@@]13C[C@@H](C(=O)Nc4nc(C(F)(F)F)ccc4C)N(C(=O)C2)[C@@H]1C3` [Compound T-255], the pIC50 in data set [2] is more than 6.00.
On the same count and under the same terms, the value for `CC(=O)c1nn2c3c(cc(-c4cnc5cc(C)nn5c4)cc13)CCCCCCC(=O)NC[C@@]13C[C@@H](C(=O)Nc4nc(C(F)(F)F)ccc4C)N(C(=O)C2)[C@@H]1C3` [Compound T-256] was more than 6.00.
For the compound `CC(=O)c1nn2c3c(cc(-c4ccc5nc(C)nn5c4)cc13)CCCCCCC(=O)NC[C@@]13C[C@@H](C(=O)Nc4nc(C(F)(F)F)ccc4C)N(C(=O)C2)[C@@H]1C3` [Compound T-257], the pIC50 in data set [2] was more than 6.00.
On the same count and under the same terms, to `CC(=O)c1nn2c3c(cc(-c4cnc5cc(C6CC6)nn5c4)cc13)CCCCCCC(=O)NC[C@@]13C[C@@H](C(=O)Nc4nc(C(F)(F)F)ccc4C)N(C(=O)C2)[C@@H]1C3` [Compound T-258] belongs more than 6.00; to “(41R,43S,45R)-42-(2-(3-acetyl-5-(2- methylpyrimidin-5-yl)-1H-indazol-1- yl)acetyl)-16-bromo-6-methyl-7-thia-42,6- diaza-1(2,3)-pyridina-4(3,5)- bicyclo[3.1.0]hexanacycloundecaphan-10- en-3-one 7,7-dioxide [Compound T-17]”, more than 6.00.
